Here are results for 24 compounds from patent US11319299B2, “Substituted carboxamides as inhibitors of WDR5 protein-protein binding” (PROPELLON THERAPEUTICS INC., priority 2016, dated 2022).

The first assay concerns the target WDR5 (Homo sapiens (Human), UniProt P61964). As to the kind of experiment: Surface Plasmon Resonance (SPR) assay, KD and residence time. The format is binding. The conditions noted are these: surface plasmon resonance (SPR) assay; read-out: WDR5 binding affinity (KD).
In the case of `Cc1cc(-c2cc(NC(=O)c3c[nH]c(=O)cc3C(F)(F)F)c(N3C[C@@H](C)N(C)[C@@H](C)C3)cc2F)cnc1N1CCOCC1` [Example 171, N-[4-fluoro-5-(5-methyl-6-morpholin-4-ylpyridin-3-yl)-2-[(3R,5S)-3,4,5-trimethylpiperazin-1-yl]phenyl]-6-oxo-4-(trifluoromethyl)-1H-pyridine-3-carboxamide], the Kd is 2.5 nM.

For `C[C@@H]1CN(c2ncc(-c3cc(NC(=O)c4c[nH]c(=O)cc4C(F)(F)F)c(N4CCN(C)[C@H](C)C4)cc3F)cn2)CCO1` (stereo in doubt) [Example 389, N-[4-fluoro-2-[(3R)-3,4-dimethylpiperazin-1-yl]-5-[2-[(2R)-2-methylmorpholin-4-yl]pyrimidin-5-yl]phenyl]-6-oxo-4-(trifluoromethyl)-1H-pyridine-3-carboxamide], the Kd was found to be 0.522 nM. Regarding `C[C@@H]1CN(c2cc(F)c(-c3cncc(C#N)c3)cc2NC(=O)c2c[nH]c(=O)cc2C(F)(F)F)C[C@H](C)N1C` [Example 205, N-[5-(5-cyanopyridin-3-yl)-4-fluoro-2-[(3R,5S)-3,4,5-trimethylpiperazin-1-yl]phenyl]-6-oxo-4-(trifluoromethyl)-1H-pyridine-3-carboxamide], the Kd is 8.15 nM.

Regarding `CNC1CCN(c2cc(F)c(-c3cnc(N4CCOCC4)nc3)cc2NC(=O)c2c[nH]c(=O)cc2C(F)(F)F)C1` (stereo not drawn) [Example 277, N-[4-fluoro-2-[3-(methylamino)pyrrolidin-1-yl]-5-(2-morpholin-4-ylpyrimidin-5-yl)phenyl]-6-oxo-4-(trifluoromethyl)-1H-pyridine-3-carboxamide], the Kd is 14.9 nM.

Regarding `C[C@@H]1CN(c2cc(F)c(-c3ccc4c(c3)OCCO4)cc2NC(=O)c2c[nH]c(=O)cc2C(F)(F)F)C[C@H](C)N1C` [Example 70, N-[5-(2,3-dihydro-1,4-benzodioxin-6-yl)-4-fluoro-2-[(3R,5S)-3,4,5-trimethylpiperazin-1-yl]phenyl]-6-oxo-4-(trifluoromethyl)-1H-pyridine-3-carboxamide], the Kd came out at 0.429 nM.

As for `CCn1cc(C(=O)Nc2cc(-c3cnc(N4CCOCC4)nc3)c(F)cc2N2C[C@@H](C)N(C)[C@@H](C)C2)c(C(F)(F)F)cc1=O` [Example 315, 1-ethyl-N-[4-fluoro-5-(2-morpholin-4-ylpyrimidin-5-yl)-2-[(3R,5S)-3,4,5-trimethylpiperazin-1-yl]phenyl]-6-oxo-4-(trifluoromethyl)pyridine-3-carboxamide], the Kd came to 8.49 nM. Take `C[C@@H]1CN(c2cc(F)c(-c3ccc(N4CCOCC4)cc3)cc2NC(=O)c2cc(Cl)cc(Cl)c2)C[C@H](C)N1C` [Example 191, 3,5-dichloro-N-[4-fluoro-5-(4-morpholin-4-ylphenyl)-2-[(3R,5S)-3,4,5-trimethylpiperazin-1-yl]phenyl]benzamide]: the Kd was found to be 21.5 nM. In the case of `COc1ccc(CC(=O)N2CC=C(c3cc(NC(=O)c4c[nH]c(=O)cc4C(F)(F)F)c(N4C[C@@H](C)N(C)[C@@H](C)C4)cc3F)CC2)cc1` [Example 208, N-[4-fluoro-5-[1-[2-(4-methoxyphenyl)acetyl]-3,6-dihydro-2H-pyridin-4-yl]-2-[(3R,5S)-3,4,5-trimethylpiperazin-1-yl]phenyl]-6-oxo-4-(trifluoromethyl)-1H-pyridine-3-carboxamide], the Kd came out at 0.57 nM. Still for that read-out and setting: for `C[C@@H]1CN(c2cc(F)c(-c3cnc(N4CCOCC4)nc3)cc2NC(=O)c2cc(Cl)c(F)c(Cl)c2)C[C@H](C)N1C` [Example 212, 3,5-dichloro-4-fluoro-N-[4-fluoro-5-(2-morpholin-4-ylpyrimidin-5-yl)-2-[(3R,5S)-3,4,5-trimethylpiperazin-1-yl]phenyl]benzamide] the value was 2.71 nM; for `CN(C)[C@@H]1CCN(c2cc(F)c(-c3cnc(N4CCOCC4)nc3)cc2NC(=O)c2cn(C)c(=O)cc2C(F)(F)F)C1` [Example 184, N-[4-fluoro-5-(2-morpholin-4-ylpyrimidin-5-yl)-2-[(3R)-3-(dimethylamino)pyrrolidin-1-yl]phenyl]-1-methyl-6-oxo-4-(trifluoromethyl)pyridine-3-carboxamide], 9.8 nM.

The same assay, now with this note: surface plasmon resonance (SPR); read-out: WDR5 binding affinity (KD).
Turning to `C[C@@H]1CN(c2cc(F)c(C3=CCCN(c4ncc(C#N)s4)CC3)cc2NC(=O)c2c[nH]c(=O)cc2C(F)(F)F)C[C@H](C)N1C` [Example 700, N-[5-[1-(5-cyano-1,3-thiazol-2-yl)-2,3,6,7-tetrahydroazepin-4-yl]-4-fluoro-2-[(3R,5S)-3,4,5-trimethylpiperazin-1-yl]phenyl]-6-oxo-4-(trifluoromethyl)-1H-pyridine-3-carboxamide], the Kd was found to be 7.31 nM.

As to `C[C@@H]1CN(c2cc(F)c(-c3cnc(N4CCNCC4)nc3)cc2NC(=O)c2ccc(F)cc2C(F)(F)F)C[C@H](C)N1C` [Example 546, 4-fluoro-N-[4-fluoro-5-(2-piperazin-1-ylpyrimidin-5-yl)-2-[(3R,5S)-3,4,5-trimethylpiperazin-1-yl]phenyl]-2-(trifluoromethyl)benzamide], the Kd stood at 2.1 nM. On the same count and under the same terms, the value for `CC1CN(c2cc(F)c(-c3cnc(N4CCOCC4)s3)cc2NC(=O)c2c[nH]c(=O)cc2C(F)(F)F)CCN1C` (stereo in doubt) [Example 618, N-[4-fluoro-5-(2-morpholin-4-yl-1,3-thiazol-5-yl)-2-[(3R)-3,4-dimethylpiperazin-1-yl]phenyl]-6-oxo-4-(trifluoromethyl)-1H-pyridine-3-carboxamide] was 1.13 nM. On the same count and under the same terms, for `C[C@@H]1CN(c2cc(F)c(-c3ccc4c(c3)ncn4C)cc2NC(=O)c2c[nH]c(=O)cc2C(F)(F)F)C[C@H](C)N1C` [Example 675, N-[4-fluoro-5-(1-methylbenzimidazol-5-yl)-2-[(3R,5S)-3,4,5-trimethylpiperazin-1-yl]phenyl]-6-oxo-4-(trifluoromethyl)-1H-pyridine-3-carboxamide] the value was 1.97 nM; for `CC1CN(c2cc(F)c(-c3ccc(N4C[C@@H](C)O[C@@H](C)C4)nc3)cc2NC(=O)c2ccc(F)cc2C(F)(F)F)CCN1C` (stereo in doubt) [Example 423, 4-fluoro-N-[4-fluoro-5-[6-[(2R,6S)-2,6-dimethylmorpholin-4-yl]pyridin-3-yl]-2-[(3R)-3,4-dimethylpiperazin-1-yl]phenyl]-2-(trifluoromethyl)benzamide], 1.93 nM; for `C[C@@H]1CN(c2nccc(-c3cc(NC(=O)c4c[nH]c(=O)cc4C(F)(F)F)c(N4C[C@@H](C)N(C)[C@@H](C)C4)cc3F)n2)CCO1` (racemic) [Example 691, N-[4-fluoro-5-[2-[(2R)-2-methylmorpholin-4-yl]pyrimidin-4-yl]-2-[(3R,5S)-3,4,5-trimethylpiperazin-1-yl]phenyl]-6-oxo-4-(trifluoromethyl)-H-pyridine-3-carboxamide], 1.31 nM. Regarding `CC1CN(c2cc(F)c(C3=CCCN(c4ncc(C#N)s4)C3)cc2NC(=O)c2ccc(F)cc2C(F)(F)F)CCN1C` (stereo in doubt) [Example 689, N-[5-[1-(5-cyano-1,3-thiazol-2-yl)-3,6-dihydro-2H-pyridin-5-yl]-4-fluoro-2-[(3R)-3,4-dimethylpiperazin-1-yl]phenyl]-4-fluoro-2-(trifluoromethyl)benzamide], the Kd was determined as 6.28 nM. Take `C[C@@H]1CN(c2cc(F)c(C3=CCN(c4ncc(CN5CCOCC5)cn4)CC3)cc2NC(=O)c2c[nH]c(=O)cc2C(F)(F)F)C[C@H](C)N1C` [Example 406, N-[4-fluoro-5-[1-[5-(morpholin-4-ylmethyl)pyrimidin-2-yl]-3,6-dihydro-2H-pyridin-4-yl]-2-[(3R,5S)-3,4,5-trimethylpiperazin-1-yl]phenyl]-6-oxo-4-(trifluoromethyl)-1H-pyridine-3-carboxamide]: the Kd is 0.457 nM. Still for that read-out and setting: for `C[C@@H]1CN(c2cc(F)c(-c3ccc(F)c(C(N)=O)c3)cc2NC(=O)c2c[nH]c(=O)cc2C(F)(F)F)C[C@H](C)N1C` [Example 550, N-[5-(3-carbamoyl-4-fluorophenyl)-4-fluoro-2-[(3R,5S)-3,4,5-trimethylpiperazin-1-yl]phenyl]-6-oxo-4-(trifluoromethyl)-1H-pyridine-3-carboxamide] the value was 2.5 nM. The same measure, in the same setting: for `C[C@@H]1CN(c2cc(F)c(-c3cnc(N4CCOCC4)nc3)cc2NC(=O)c2ccc(F)cc2C(F)F)C[C@H](C)N1C` [Example 722, 2-(difluoromethyl)-4-fluoro-N-[4-fluoro-5-(2-morpholin-4-ylpyrimidin-5-yl)-2-[(3R,5S)-3,4,5-trimethylpiperazin-1-yl]phenyl]benzamide] the value was 1.36 nM. Turning to `CC1CN(c2cc(F)c(-c3nccc(N4CCOCC4)n3)cc2NC(=O)c2c[nH]c(=O)cc2C(F)(F)F)CCN1C` (stereo in doubt) [Example 599, N-[4-fluoro-5-(4-morpholin-4-ylpyrimidin-2-yl)-2-[(3R)-3,4-dimethylpiperazin-1-yl]phenyl]-6-oxo-4-(trifluoromethyl)-1H-pyridine-3-carboxamide], the Kd is 4.18 nM. As for `CC1CN(c2cc(F)c(-c3cnc(N4CCN(C5CC5)CC4)nc3)cc2NC(=O)c2ccc(F)cc2C(F)(F)F)CCN1C` (stereo in doubt) [Example 435, N-[5-[2-(4-cyclopropylpiperazin-1-yl)pyrimidin-5-yl]-4-fluoro-2-[(3R)-3,4-dimethylpiperazin-1-yl]phenyl]-4-fluoro-2-(trifluoromethyl)benzamide], the equilibrium dissociation constant (Kd) turned out to be 1.47 nM.

`CC1COCCN1c1ncc(-c2cc(NC(=O)c3cn(C)c(=O)cc3C(F)F)c(N3C[C@@H](C)N(C)[C@@H](C)C3)cc2F)cn1` (stereo in doubt) [Example 475, 4-(difluoromethyl)-N-[4-fluoro-5-[2-[(3R)-3-methylmorpholin-4-yl]pyrimidin-5-yl]-2-[(3S,5R)-3,4,5-trimethylpiperazin-1-yl]phenyl]-1-methyl-6-oxopyridine-3-carboxamide]: the Kd turned out to be 3.52 nM.

`C[C@@H]1CN(c2cc(F)c(-c3cc(F)c(C(=O)N[C@@H]4CCOC4)c(F)c3)cc2NC(=O)c2c[nH]c(=O)cc2C(F)(F)F)C[C@H](C)N1C` [Example 762, 6-oxo-N-(3′,5′,6-trifluoro-4′-(((R)-tetrahydrofuran-3-yl)carbamoyl)-4-((3S,5R)-3,4,5-trimethylpiperazin-1-yl)-[1,1′-biphenyl]-3-yl)-4-(trifluoromethyl)-1,6-dihydropyridine-3-carboxamide]: the Kd is 0.9 nM.
